Experimental data reported in patent US20170349532A1, “CATIONIC LIPID” (Kyowa Hakko Kirin Co., Ltd., priority 2011, published 2017).

How the values were obtained:
[1] = Average particle diameter of preparation (Zetasizer Nano ZS); type: physicochemical; conditions: average particle diameter of cationic lipid/nucleic acid complex; Example 118 preparation: compound/PEG-DMPE Na/DSPC/cholesterol with apo-b siRNA
Procedure, shortened: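 Lipid nanoparticles formed by mixing cationic lipid/PEG-DMPE Na/DSPC/cholesterol (8.947/1.059/5.708/13.697 mmol/L in 90% ethanol, 37 °C) with apo-b siRNA in Tris-EDTA/citrate buffer pH 5.0, then diluted with citrate/NaCl pH 6.0 and DPBS to 10 μM siRNA. Mean complex diameter measured by dynamic light scattering.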

[2] = system: CKAP5 mRNA in MIA PaCa-2 subcutaneous tumor; experiment: Test Example 3: in vivo mRNA knockdown evaluation in MIA PaCa-2 xenograft; set-up: species or system SCID mouse; conditions: Example 122 preparation with CKAP5 siRNA; 48 hours after intravenous administration, 10 mg/kg siRNA, MIAPaCa-2 xenograft mouse
Protocol: The preparations obtained in Example 122 and 123 are subjected to an in vivo mRNA knockdown evaluation test in the following manner.
MIA PaCa-2 that is a cell line derived from human pancreas cancer is received from the JCRB Cell Bank and cultivated with high glucose-containing DMEM (manufactured by GIBCO, 11995-073) containing a 10% inactivated fetal calf serum (manufactured by GIBCO) and 1 vol % penicillin-streptomycin (manufactured by GIBCO, 26253-84) under conditions at 37° C. and 5% CO2. […] Before the administration and 48 hours after the administration, the weight of the mouse is measured. […]
With respect to the obtained tumor sample, 1 mL of a Trizol reagent (manufactured by Invitrogen, 15596-018) and zirconia beads of 5 mm are added to a 2-mL round bottom tube containing the sample charged therein, and the contents are pulverized by Tissue lyser II (manufactured by QIAGEN) under conditions of 1/25 freq, 1.5 minutes×2 times. […] A concentration of the extracted RNA is measured by a trace absorption photometer Dropsense96 (Trinean), and RNA corresponding to from 200 to 1,000 ng is subjected to reverse transfer with a Transcriptor (manufactured by Roche, 4897030). […] An mRNA amount of the specimen is calculated as a relative proportion when the mRNA amount of CKAP5 mRNA was defined as 1. […]

Q: What does the source list for `CCCCC/C=C\C/C=C\CCCCCCCC(=O)OC[C@@H]1CN(C)C[C@H]1COC(=O)CCCCCCC/C=C\C/C=C\CCCCC` (relative stereo) [Compound 110, trans-1-Methyl-3,4-bis(((9Z,12Z)-octadec-9,12-dienoyloxy)methyl)pyrrolidine]?
A: Particle diameter of Preparetion [1]: 131.6 nm; amount of CKAP mRNA in tumor, relative proportion [2]: 0.28; in vivo mRNA knockdown rate [2]: 72%
